According to publication PMC8410599, “The structural basis of odorant recognition in insect olfactory receptors” (Nature, 2021):
Like-named read-outs stand apart in the source and are kept apart here. Values belong to the molecule of their own block, whether it stands above or below them.

Key:
[1] = target: T1, MhOR5 (Machilis hrabei, UniProt Z9G0B3H7M0); test: GCaMP6s calcium flux, HEK293; type: cell-based; settings: agonist, sub-maximal efficacy; 2 mM CaCl2, pH 7.4
T1 construct: Lys2-Pro474; cryo-EM: N-terminal Strep II-sfGFP cleaved with HRV 3C, HEK293S GnTI-; calcium assay: pME18s vector without fluorescent marker, HEK293 with GCaMP6s; homotetramer
T1 sequence (Z9G0B3H7M0 6-478): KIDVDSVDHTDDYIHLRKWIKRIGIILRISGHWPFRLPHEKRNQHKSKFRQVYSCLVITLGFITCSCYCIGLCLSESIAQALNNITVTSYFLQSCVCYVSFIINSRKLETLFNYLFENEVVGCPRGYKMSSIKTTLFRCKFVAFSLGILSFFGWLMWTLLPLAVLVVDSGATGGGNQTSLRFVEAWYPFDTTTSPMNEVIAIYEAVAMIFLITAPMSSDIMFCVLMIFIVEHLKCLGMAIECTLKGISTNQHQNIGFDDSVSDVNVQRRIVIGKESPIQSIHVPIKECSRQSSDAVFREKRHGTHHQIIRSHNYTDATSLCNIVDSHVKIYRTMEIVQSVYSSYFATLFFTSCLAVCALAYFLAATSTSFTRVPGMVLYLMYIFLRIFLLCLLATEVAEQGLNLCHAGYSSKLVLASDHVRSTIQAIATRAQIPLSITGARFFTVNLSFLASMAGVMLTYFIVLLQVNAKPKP

[2] = target: T2, Orco (Apocrypta bakeri, UniProt B0FAQ4); test: cell-based; set-up: species or system HEK293; GCaMP6s calcium fluorescence dose-response of olfactory receptor channel expressed in HEK293 cells
T2 construct: gene Or2; expressed in HEK293 cells with GCaMP6s; homotetramer
T2 sequence (B0FAQ4 1-474): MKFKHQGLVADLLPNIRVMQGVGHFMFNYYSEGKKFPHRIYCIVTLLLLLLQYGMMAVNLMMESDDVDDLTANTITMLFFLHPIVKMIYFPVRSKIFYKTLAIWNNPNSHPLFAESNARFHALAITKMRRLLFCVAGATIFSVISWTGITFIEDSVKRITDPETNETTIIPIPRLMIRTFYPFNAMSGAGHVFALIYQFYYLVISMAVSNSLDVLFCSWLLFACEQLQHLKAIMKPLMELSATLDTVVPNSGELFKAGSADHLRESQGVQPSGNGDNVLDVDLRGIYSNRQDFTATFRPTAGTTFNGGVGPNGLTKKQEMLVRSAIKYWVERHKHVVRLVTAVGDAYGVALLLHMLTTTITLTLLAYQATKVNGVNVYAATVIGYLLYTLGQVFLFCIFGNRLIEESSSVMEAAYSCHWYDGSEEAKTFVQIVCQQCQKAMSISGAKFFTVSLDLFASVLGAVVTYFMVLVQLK
Procedure: (§1) Seven ligand concentrations were used for each transfection condition in sequential dilutions of 3, alongside a control well of only reading buffer. Ligands were dissolved in DMSO to 150 mM, then diluted with reading buffer to a highest final-well concentration of 0.5 mM (DMSO never exceeded 0.5%). Water-soluble ligands (arabinose, caffeine, denatonium, glucose, MSG, sucrose) were dissolved directly into reading buffer. If experimental data indicated a more sensitive response than this range, the concentration was adjusted accordingly. Ligand concentrations for mutants were the same as for the corresponding wild-type OR. Each plate contained a negative control of GCaMP6s transfected alone and exposed to eugenol for MhOR5 and VUAA1 for Orco experiments. […] A control of DMSO alone was also tested to ensure no activity effects were due to the solvent. Each concentration of ligand was applied to four technical replicates, which were averaged and considered a single biological replicate. The baseline fluorescence (F) was calculated as the average fluorescence of the 30 s before odour was added to the plate. Within each well, ΔF was calculated as the difference between the average of the last 10 s of fluorescence and the baseline F. ΔF/F was then calculated as the ΔF divided by the baseline fluorescence (F). […]

[3] = target: T2, Orco; test: cell-based; set-up: species or system HEK293; GCaMP6s calcium fluorescence (ΔF/F) dose-response in HEK cells expressing the odorant receptor
Procedure: as §1

Compound: CCN(CC)C(=O)c1cccc(C)c1 [DEET]
EC50 [1]: MhOR5 was also activated by the insect repellent DEET

EC50 [2]: 55.2 µM
Compound: CCc1ccc(NC(=O)CSc2nnc(-c3cccnc3)n2CC)cc1 [VUAA1]

EC50 [3]: > 500 µM
Compound: CC(=O)c1ccccc1 [acetophenone]
